Data: ChEMBL document CHEMBL4825668, “Discovery of Novel Pyrimidine-Based Capsid Assembly Modulators as Potent Anti-HBV Agents” (J Med Chem, 2021)

What was measured:
[1] = Metabolic stability in mouse liver microsomes assessed as compound remaining at […] incubated for 30 mins by LC/MS/MS analysis; assay type: ADME, Microsome; conditions: read-out: Stabilty
[2] = tested on: Hepatitis B virus; assay: Antiviral activity against Human hepatitis B virus in Huh-7 cells assessed as reduction in intracellular viral DNA level incubated for 36 hrs by qPCR analysis; assay type: functional, organism-based; conditions: Huh-7, 36 h
[3] = tested on: Hepatitis B virus; assay: Inhibition of HBV recombinant Cp149 expressed in Escherichia coli BL21 (DE3) assessed as inhibition of capsid assembly at 10 uM incubated for 1 hr by immune blotting analysis relative to control
[4] = Metabolic stability in human liver microsomes assessed as compound remaining at […] incubated for 30 mins by LC/MS/MS analysis; assay type: ADME, Microsome; conditions: read-out: Stabilty
[5] = Metabolic stability in rat liver microsomes assessed as compound remaining at […] incubated for 30 mins by LC/MS/MS analysis; assay type: ADME, Microsome; conditions: read-out: Stabilty
[6] = tested on: Hepatitis B virus; assay: Inhibition of HBV recombinant Cp149 expressed in Escherichia coli BL21 (DE3) assessed as inhibition of capsid assembly at 1 uM incubated for 1 hr by immune blotting analysis relative to control
[7] = tested on: Hepatitis B virus; assay: Inhibition of HBV recombinant Cp149 expressed in Escherichia coli BL21 (DE3) assessed as inhibition of capsid assembly at 0.1 uM incubated for 1 hr by immune blotting analysis relative to control
[8] = biological target: CYP2D6 (Homo sapiens, UniProt P10635); assay: Inhibition of human recombinant CYP2D6 using quinidine […] at 10 uM by fluorometric assay; assay type: ADME
[9] = biological target: hERG (KCNH2) (Homo sapiens, UniProt Q12809); assay: Inhibition of human ERG at 40 uM incubated for 2 to 3 hrs by ligand binding assay
[10] = biological target: T1, CYP1A2 (Homo sapiens, UniProt P05177); assay: Inhibition of human recombinant CYP1A2 using alpha-naphthoflavone […] at 10 uM by fluorometric assay; assay type: ADME
T1 sequence (P05177 whole entry): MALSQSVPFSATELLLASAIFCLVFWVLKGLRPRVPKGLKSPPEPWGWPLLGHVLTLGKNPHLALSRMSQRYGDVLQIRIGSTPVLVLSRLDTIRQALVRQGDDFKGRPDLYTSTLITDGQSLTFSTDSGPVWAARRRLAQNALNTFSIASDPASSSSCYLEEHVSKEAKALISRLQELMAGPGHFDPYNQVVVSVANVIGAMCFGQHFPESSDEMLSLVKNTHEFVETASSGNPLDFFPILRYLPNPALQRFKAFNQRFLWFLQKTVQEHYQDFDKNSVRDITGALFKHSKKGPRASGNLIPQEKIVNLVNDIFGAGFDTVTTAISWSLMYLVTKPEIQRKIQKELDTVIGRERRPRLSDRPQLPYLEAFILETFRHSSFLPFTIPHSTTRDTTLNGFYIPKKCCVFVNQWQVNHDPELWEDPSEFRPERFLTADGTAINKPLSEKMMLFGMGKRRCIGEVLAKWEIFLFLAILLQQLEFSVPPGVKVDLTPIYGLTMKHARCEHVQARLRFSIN

[11] = Mutagenicity in Salmonella typhimurium in presence of S9 fraction by Ames test; assay type: toxicity, subcellular; conditions: salmonella enterica subsp. enterica serovar typhimurium
[12] = biological target: CYP3A4 (Homo sapiens, UniProt P08684); assay: Inhibition of human recombinant CYP3A4 using ketoconazole […] at 10 uM by fluorometric assay; assay type: ADME
[13] = biological target: CYP2C19 (Homo sapiens, UniProt P33261); assay: Inhibition of human recombinant CYP2C19 using amitriptyline […] at 10 uM by fluorometric assay; assay type: ADME
[14] = biological target: CYP2C9 (Homo sapiens, UniProt P11712); assay: Inhibition of human recombinant CYP2C9 using sulfaphenazole […] at 10 uM by fluorometric assay; assay type: ADME
[15] = Permeability of the compound at pH 7.4 by PAMPA; assay type: ADME

Sequence of CYP2C9 (P11712 whole entry): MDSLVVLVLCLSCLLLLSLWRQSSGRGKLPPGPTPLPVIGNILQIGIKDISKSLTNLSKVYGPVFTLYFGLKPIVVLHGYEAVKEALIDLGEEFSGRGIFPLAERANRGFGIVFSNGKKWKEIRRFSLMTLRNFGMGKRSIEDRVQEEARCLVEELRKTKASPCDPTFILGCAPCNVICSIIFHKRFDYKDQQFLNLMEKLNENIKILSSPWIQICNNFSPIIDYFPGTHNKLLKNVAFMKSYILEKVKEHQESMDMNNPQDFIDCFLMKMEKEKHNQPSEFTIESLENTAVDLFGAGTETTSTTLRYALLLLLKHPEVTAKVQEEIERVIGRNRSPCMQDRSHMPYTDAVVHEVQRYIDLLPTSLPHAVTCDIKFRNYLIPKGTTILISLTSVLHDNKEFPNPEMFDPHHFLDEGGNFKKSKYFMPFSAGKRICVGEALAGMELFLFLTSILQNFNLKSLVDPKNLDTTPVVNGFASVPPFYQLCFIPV
Sequence of CYP2C19 (P33261 whole entry): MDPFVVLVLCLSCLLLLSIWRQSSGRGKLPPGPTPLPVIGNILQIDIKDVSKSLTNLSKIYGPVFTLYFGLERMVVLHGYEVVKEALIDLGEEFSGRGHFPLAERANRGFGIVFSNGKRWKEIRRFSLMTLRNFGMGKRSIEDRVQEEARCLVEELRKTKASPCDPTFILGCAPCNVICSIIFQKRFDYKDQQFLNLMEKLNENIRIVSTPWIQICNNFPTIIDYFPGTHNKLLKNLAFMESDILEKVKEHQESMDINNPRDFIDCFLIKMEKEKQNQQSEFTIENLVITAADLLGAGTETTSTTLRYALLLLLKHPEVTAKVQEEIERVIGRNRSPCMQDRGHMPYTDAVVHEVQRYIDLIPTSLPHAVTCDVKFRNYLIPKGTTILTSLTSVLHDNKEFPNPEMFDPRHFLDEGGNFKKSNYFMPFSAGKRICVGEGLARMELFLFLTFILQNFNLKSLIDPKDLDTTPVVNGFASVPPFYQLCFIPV
Sequence of CYP3A4 (P08684 whole entry): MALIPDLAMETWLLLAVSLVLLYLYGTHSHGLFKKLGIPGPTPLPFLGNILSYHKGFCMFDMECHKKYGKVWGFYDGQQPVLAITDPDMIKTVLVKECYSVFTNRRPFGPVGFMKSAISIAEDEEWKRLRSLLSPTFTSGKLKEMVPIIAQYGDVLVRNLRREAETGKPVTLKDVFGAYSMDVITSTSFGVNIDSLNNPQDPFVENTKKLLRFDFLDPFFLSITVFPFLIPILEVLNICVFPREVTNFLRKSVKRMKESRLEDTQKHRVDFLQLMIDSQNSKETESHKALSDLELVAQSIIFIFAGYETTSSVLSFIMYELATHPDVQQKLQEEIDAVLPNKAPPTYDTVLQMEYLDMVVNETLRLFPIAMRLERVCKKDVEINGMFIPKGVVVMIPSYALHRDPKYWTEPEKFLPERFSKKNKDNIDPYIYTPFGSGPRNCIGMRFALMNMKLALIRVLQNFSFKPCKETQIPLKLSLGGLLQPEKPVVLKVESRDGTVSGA
Sequence of CYP2D6 (P10635 whole entry): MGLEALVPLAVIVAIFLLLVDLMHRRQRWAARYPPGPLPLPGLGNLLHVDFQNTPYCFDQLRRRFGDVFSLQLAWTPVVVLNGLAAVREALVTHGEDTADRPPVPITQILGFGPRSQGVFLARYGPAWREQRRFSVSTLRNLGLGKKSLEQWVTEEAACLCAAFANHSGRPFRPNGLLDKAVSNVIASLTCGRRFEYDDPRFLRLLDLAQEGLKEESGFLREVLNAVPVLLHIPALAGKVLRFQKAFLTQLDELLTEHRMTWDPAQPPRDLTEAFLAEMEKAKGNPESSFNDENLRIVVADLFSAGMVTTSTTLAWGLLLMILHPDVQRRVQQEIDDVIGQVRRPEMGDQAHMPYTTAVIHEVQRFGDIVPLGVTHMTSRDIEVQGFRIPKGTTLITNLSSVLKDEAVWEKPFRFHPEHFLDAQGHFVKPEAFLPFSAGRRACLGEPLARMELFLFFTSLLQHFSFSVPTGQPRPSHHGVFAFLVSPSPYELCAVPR
Sequence of hERG (KCNH2) (Q12809 whole entry): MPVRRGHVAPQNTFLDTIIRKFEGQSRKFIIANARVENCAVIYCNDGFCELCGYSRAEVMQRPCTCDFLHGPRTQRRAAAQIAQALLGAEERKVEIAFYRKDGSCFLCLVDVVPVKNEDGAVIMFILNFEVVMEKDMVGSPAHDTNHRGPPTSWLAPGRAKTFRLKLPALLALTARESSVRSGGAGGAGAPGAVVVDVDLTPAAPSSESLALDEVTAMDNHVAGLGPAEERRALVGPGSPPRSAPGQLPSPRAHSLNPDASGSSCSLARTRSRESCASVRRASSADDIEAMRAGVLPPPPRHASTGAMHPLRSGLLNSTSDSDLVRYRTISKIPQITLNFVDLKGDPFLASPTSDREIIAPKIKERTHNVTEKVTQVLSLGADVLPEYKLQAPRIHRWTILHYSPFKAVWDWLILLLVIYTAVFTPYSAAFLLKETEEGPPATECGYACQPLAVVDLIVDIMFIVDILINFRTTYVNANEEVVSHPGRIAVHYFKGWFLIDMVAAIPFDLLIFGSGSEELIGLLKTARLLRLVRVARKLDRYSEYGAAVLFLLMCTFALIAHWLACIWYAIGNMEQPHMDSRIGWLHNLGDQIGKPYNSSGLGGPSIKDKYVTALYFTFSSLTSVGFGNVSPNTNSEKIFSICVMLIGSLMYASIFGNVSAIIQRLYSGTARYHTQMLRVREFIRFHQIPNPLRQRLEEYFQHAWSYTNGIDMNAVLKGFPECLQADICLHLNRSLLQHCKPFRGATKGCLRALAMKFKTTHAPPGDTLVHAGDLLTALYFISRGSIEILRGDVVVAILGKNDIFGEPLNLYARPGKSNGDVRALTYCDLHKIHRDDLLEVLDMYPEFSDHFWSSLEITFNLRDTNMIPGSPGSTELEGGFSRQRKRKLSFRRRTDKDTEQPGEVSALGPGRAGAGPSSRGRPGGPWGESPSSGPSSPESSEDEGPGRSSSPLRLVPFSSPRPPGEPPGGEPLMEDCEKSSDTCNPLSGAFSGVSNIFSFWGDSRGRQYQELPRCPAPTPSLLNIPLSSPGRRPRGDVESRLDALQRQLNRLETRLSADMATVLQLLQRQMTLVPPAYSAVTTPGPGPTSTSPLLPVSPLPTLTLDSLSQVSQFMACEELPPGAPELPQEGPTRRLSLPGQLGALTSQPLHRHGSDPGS

SMILES	IC50 [2] [nM]	inhibition [3] [%]	inhibition [6] [%]	inhibition [7] [%]	other results
CS(=O)(=O)c1nc(Nc2cc(F)c(F)c(F)c2)cc(Nc2cc(F)c(F)c(F)c2)n1	1020	69			remaining at 0.5 h [1]: 99.9%; remaining at 0.5 h [4]: 99.9%; remaining at 0.5 h [5]: 99.9%
CSc1nc(NCCNC(=O)c2cccnc2)cc(Nc2ccc(N3CCOCC3)cc2)n1	> 10000	43			
COc1ncccc1C(=O)NCCNc1cc(Nc2ccc(Cl)cc2)nc([S+](C)[O-])n1 (stereo not drawn)	299		80	27	
COC(=O)C1=C(C)NC(c2ncc(F)cc2F)=N[C@H]1c1ccc(F)cc1Cl	205	37			
COc1ncccc1C(=O)NCCNc1cc(Nc2ccccc2)nc([S+](C)[O-])n1 (stereo not drawn)	484		83	14	
CS(=O)(=O)c1nc(Nc2ccc(F)c(Br)c2)cc(NC2CCC(N)CC2)n1 (stereo not drawn)	480		98	10	
O=C1CC2(CCCC2)CC(=O)N1CCCCN1CCN(c2ncccn2)CC1 [BUSPIRONE]					remaining at 0.5 h [1]: 0.906%; remaining at 0.5 h [4]: 2.44%; remaining at 0.5 h [5]: 0.528%
CS(=O)(=O)c1nc(Nc2cc(F)c(F)c(F)c2)cc(N2CCNCC2)n1	203		92	39	inhibition at 10 µM [8]: 5.76%; inhibition at 40 µM [9]: 48.7%; remaining at 0.5 h [1]: 99.8%; inhibition at 10 µM [10]: 23.6%; Activity [11]: Non-Toxic; remaining at 0.5 h [4]: 99.9%; remaining at 0.5 h [5]: 87.9%; inhibition at 10 µM [12]: 52.1%; inhibition at 10 µM [13]: 93.4%; inhibition at 10 µM [14]: 85.2%
CS(=O)(=O)c1nc(Nc2ccc(F)c(Cl)c2)cc(N2CCNCC2)n1			90	47	
CS(=O)(=O)c1nc(Nc2cc(F)c(F)c(F)c2)cc(NC2CCC(N)CC2)n1 (stereo not drawn)	292		96	29	
COc1ncccc1C(=O)NCCNc1cc(Nc2ccc(N3CCOCC3)cc2)nc(S(C)(=O)=O)n1	198		86	49	
COc1ncccc1C(=O)NCCNc1cc(Nc2ccc(F)cc2Cl)nc([S+](C)[O-])n1 (stereo not drawn)	> 10000	43			
CSc1nc(NCCNC(=O)c2cccnc2Cl)cc(Nc2ccc(N3CCOCC3)cc2)n1		2			
COc1ncccc1C(=O)N1CCN(c2cc(Nc3ccc(N4CCOCC4)cc3)nc(SC)n2)CC1	> 10000	31			
CS(=O)(=O)c1nc(Nc2ccc(F)c(Br)c2)cc(N2CCNCC2)n1	547		98	13	
COc1ncccc1C(=O)NCCNc1cc(Nc2ccc(Br)cc2)nc([S+](C)[O-])n1 (stereo not drawn)	177		82	27	
CSc1nc(NCCNC(=O)c2ncc(F)cc2F)cc(Nc2ccc(N3CCOCC3)cc2)n1		1			
COc1ncccc1C(=O)NCCNc1cc(Nc2ccc(F)c(F)c2)nc([S+](C)[O-])n1 (stereo not drawn)	> 10000	38			

SMILES	IC50 [2] [nM]	inhibition [3] [%]	inhibition [6] [%]	inhibition [7] [%]	other results
CS(=O)(=O)c1nc(Nc2ccc(F)c(Cl)c2)cc(Nc2ccc(F)c(Cl)c2)n1	587	57			remaining at 0.5 h [1]: 92.9%; remaining at 0.5 h [4]: 99.9%; remaining at 0.5 h [5]: 99.9%
CSc1nc(NCCNC(=O)c2cccc(Cl)n2)cc(Nc2ccc(N3CCOCC3)cc2)n1		0			
CS(=O)(=O)c1nc(Nc2cc(F)c(F)c(F)c2)cc(NC2CCNCC2)n1	190		90	16	remaining at 0.5 h [1]: 98.6%; log(permeability) [15]: <= -6; remaining at 0.5 h [5]: 98.2%
COc1ncccc1C(=O)NCCNc1cc(Nc2ccc(I)cc2)nc([S+](C)[O-])n1 (stereo not drawn)	> 10000	37			
COc1ncccc1C(=O)NCCNc1cc(Nc2ccc(F)cc2)nc([S+](C)[O-])n1 (stereo not drawn)	210		83	32	
CS(=O)(=O)c1nc(Nc2ccc(F)c(Cl)c2)cc(NC2CCNCC2)n1	199		95	59	remaining at 0.5 h [1]: 93.9%; remaining at 0.5 h [4]: 92.9%; log(permeability) [15]: -5.46; remaining at 0.5 h [5]: 85.1%
CSc1nc(NCCNC(=O)c2ccc(Cl)nc2Cl)cc(Nc2ccc(N3CCOCC3)cc2)n1		5			
COc1ncccc1C(=O)NCCNc1cc(Nc2ccc(N3CCOCC3)cc2)nc([S+](C)[O-])n1 (stereo not drawn)	402	95			remaining at 0.5 h [1]: 80.2%; inhibition at 10 µM [10]: 18.3%; remaining at 0.5 h [4]: 93.4%; log(permeability) [15]: -5.47; remaining at 0.5 h [5]: 77.1%; inhibition at 10 µM [12]: 51.7%; inhibition at 10 µM [13]: 40.7%; inhibition at 10 µM [14]: 42.9%
COc1cncc(C(=O)NCCNc2cc(Nc3ccc(N4CCOCC4)cc3)nc([S+](C)[O-])n2)c1 (stereo not drawn)	> 10000	78	83	43	
COc1cncc(C(=O)NCCNc2cc(Nc3ccc(N4CCOCC4)cc3)nc(SC)n2)c1	8420	37			
COc1ncccc1C(=O)N1CCN(c2cc(Nc3ccc(N4CCOCC4)cc3)nc([S+](C)[O-])n2)CC1 (stereo not drawn)	> 10000	33			
CSc1nc(NCCNC(=O)c2cccnc2F)cc(Nc2ccc(N3CCOCC3)cc2)n1		0			
COc1ncccc1C(=O)NCCNc1cc(Nc2ccc(N3CCOCC3)cc2)nc(SC)n1	> 10000	23			remaining at 0.5 h [1]: 17.8%; remaining at 0.5 h [4]: 58.8%; remaining at 0.5 h [5]: 49%
CCOC(=O)C1=C(CN2CCOCC2)NC(c2nccs2)=N[C@H]1c1ccc(F)cc1Br	188		93	49	
CS(=O)(=O)c1nc(Nc2ccc(F)c(Br)c2)cc(NC2CCNCC2)n1	536		97	7	
C[S+]([O-])c1nc(NCCNC(=O)c2cccnc2)cc(Nc2ccc(N3CCOCC3)cc2)n1 (stereo not drawn)	> 10000	13			
CS(=O)(=O)c1nc(Nc2ccc(F)cc2)cc(Nc2ccc(F)cc2)n1	6400	49			remaining at 0.5 h [1]: 37.7%; remaining at 0.5 h [4]: 42.8%; remaining at 0.5 h [5]: 74.4%
